Measurements from PubChem BioAssay (NCI).
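Exposure lasted 48 hours, with cells grown in 96-well plates and compounds tested at five concentrations. GI50: concentration for 50% inhibition of growth. At the TGI there is no net growth.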

Experiments:
Assay in all cases: growth of human tumour cells (NCI), 48 h
SK-MEL-28 melanoma = tested on: SK-MEL-28 melanoma
HOP-62 NSCLC = tested on: HOP-62 NSCLC
OVCAR-4 ovarian = tested on: OVCAR-4 ovarian
RXF 393 renal = tested on: RXF 393 renal
SF-268 CNS = tested on: SF-268 CNS
ACHN renal = tested on: ACHN renal
HT29 colon = tested on: HT29 colon
CCRF-CEM leukemia = tested on: CCRF-CEM leukemia
SR leukemia = tested on: SR leukemia
DU-145 prostate = tested on: DU-145 prostate

Structure (SMILES) | TGI (SK-MEL-28 melanoma) | TGI (HOP-62 NSCLC) | TGI (OVCAR-4 ovarian) | TGI (RXF 393 renal) | TGI (SF-268 CNS) | TGI (ACHN renal) | TGI (HT29 colon) | TGI (CCRF-CEM leukemia) | TGI (SR leukemia) | GI50 (SK-MEL-28 melanoma) | GI50 (HOP-62 NSCLC) | GI50 (OVCAR-4 ovarian) | GI50 (DU-145 prostate) | TGI (DU-145 prostate) | GI50 (RXF 393 renal) | GI50 (SF-268 CNS) | GI50 (ACHN renal) | GI50 (HT29 colon) | GI50 (CCRF-CEM leukemia)
CC#CC1/C(=C\C(=O)OC)CCCC1O (centres undefined) | > 100 µM | > 100 µM | > 100 µM | > 100 µM | > 100 µM | > 100 µM | > 100 µM | > 100 µM | > 100 µM | – | – | – | – | – | – | – | – | – | –
Cc1cc(NS(=O)(=O)c2ccc(NC(=O)c3cccc4c(Nc5ccc(S(=O)(=O)N=C(N)N)cc5)c5ccccc5nc34)cc2)no1 | > 100 µM | > 100 µM | > 100 µM | > 100 µM | > 100 µM | > 100 µM | > 100 µM | – | > 100 µM | – | – | – | – | – | – | – | – | – | –
CCOC(=O)C1SC(=Nc2ccc(Cl)c(Cl)c2)N=C1C (centres undefined) | > 100 µM | > 100 µM | 62 µM | 52.3 µM | > 100 µM | > 100 µM | 66.8 µM | 31.3 µM | – | – | – | – | – | – | – | – | – | – | –
Cc1c2c[n+](C(C)C)ccc2c(C)c2c1[nH]c1ccccc12 | 12.9 µM | 36.1 µM | 15.4 µM | > 100 µM | 14.9 µM | > 100 µM | 58.8 µM | 38.7 µM | – | 2.25 µM | 2.35 µM | 2.61 µM | 4.74 µM | 54.1 µM | 6.19 µM | 0.475 µM | 22.6 µM | 3.15 µM | 3.97 µM
CC1=CCC23C(C1)OC(Br)(C=CC2(C)O)C3(C)C (centres undefined) | > 100 µM | – | > 100 µM | – | > 100 µM | > 100 µM | > 100 µM | > 100 µM | – | – | – | – | – | – | – | – | – | – | –
Nc1c(C(=O)Nc2ccccc2)[n+]([O-])c2ccccc2[n+]1[O-] | 34.9 µM | 34.4 µM | 33.5 µM | – | > 100 µM | 30.1 µM | 37 µM | > 100 µM | – | – | – | – | – | – | – | – | – | – | –
c1ccc2c(c1)[nH]c1cnc3c4cccnc4[nH]c3c12 | 38.4 µM | 96.1 µM | 32.6 µM | 34.7 µM | 36.1 µM | 23.4 µM | 34.6 µM | 54.2 µM | 48.7 µM | – | – | – | – | – | – | – | – | – | –
Cc1ccc(-c2cc(C3=CC(=O)C=CC3=O)n(-c3ccc(S(N)(=O)=O)cc3)n2)cc1 | > 100 µM | > 100 µM | – | > 100 µM | > 100 µM | > 100 µM | > 100 µM | > 100 µM | – | > 100 µM | 69.7 µM | – | – | – | > 100 µM | 55.3 µM | 42.9 µM | 56.4 µM | > 100 µM
C=CCC(N[C@H](CO)c1ccccc1)c1cn(C(=O)OCC)c2ccccc12 (some centres undefined) | 66.1 µM | 27.9 µM | > 100 µM | 21.3 µM | 89.9 µM | 30.2 µM | > 100 µM | > 100 µM | – | 28.4 µM | 14.5 µM | 37.3 µM | 19.3 µM | 37.3 µM | 0.98 µM | 32.1 µM | 16.1 µM | 31 µM | 44 µM
Cc1cc(=O)oc2cc(OCc3c(F)cccc3Cl)ccc12 | > 100 µM | 38 µM | > 100 µM | 27.5 µM | > 100 µM | > 100 µM | – | – | – | – | – | – | – | > 100 µM | – | – | – | – | –
